These results are taken from patent US20080107613A1, “Pharmaceutical composition comprising a macrolide t-cell immunomodulator and anti-photoaging agent” (priority 2004, published 2008).

The subject of assay [1] is DNA damage induced by UV light in mouse skin (epidermal thymine dimers). Conditions: hairless mice pretreated with 1% pimecrolimus cream or 0.1% tacrolimus ointment; measured one hour after 1 J/cm^2 UVB irradiation; cited from earlier work.
Assay [2] deals with UVB-induced apoptosis in mouse skin. Conditions: hairless mice pretreated with 1% pimecrolimus cream or 0.1% tacrolimus ointment; UVB irradiation; versus untreated mice; cited from earlier work.
The subject of assay [3] is pyrimidine/thymine dimers in DNA extracted from epidermis. Put plainly: Thymine dimer levels in human epidermis after simulated solar radiation (immunoslot blot, chemoluminescence image analysis). Format: in vivo. The settings on record: skin sites of subjects with or without atopic dermatitis pretreated with pimecrolimus, 1 hour post-irradiation. Here is the method:
Similar results are obtained with skin from subjects receiving pimecrolimus, either with or without skin disease (atopic dermatitis), exposed to simulated solar radiation, when DNA is extracted from epidermis biopsied 1 hour and 24 hours after irradiation, as measured by pyrimidine dimer visualization by immunoslot blot and quantification by chemoluminescence image analysis: at 1 hour post-irradiation thymine dimer levels are clearly lower as compared to untreated control, indicative of reduced dimer production in skin sites pretreated with pimecrolimus.

As for `C=CC[C@@H]1/C=C(\C)C[C@H](C)C[C@H](OC)[C@H]2O[C@@](O)(C(=O)C(=O)N3CCCC[C@H]3C(=O)O[C@H](/C(C)=C/[C@@H]3CC[C@@H](O)[C@H](OC)C3)[C@H](C)[C@@H](O)CC1=O)[C@H](C)C[C@@H]2OC` [tacrolimus], the “decrease of amount of epidermal thymine dimers as compared to untreated mice” value in assay [1] is given as 84%. In assay [2], the UVB-induced apoptosis result is on record as “less pronounced”.

Consider “{[1E-(1R,3R,4S)]1R,9S,12S, 13R,14S,17R,18E,21S,23S,24R,25S,27R}-12-[2-(4-chloro-3-methoxycyclohexyl)-1-methylvinyl]-17-ethyl-1,14-dihydroxy-23,25-dimethoxy-13,19,21,27-tetramethyl-11,28,dioxa-4-azatricyclo [22.3.1.0(4,9)]octacos-18-ene-2,3,10,16-tetraone [pimecrolimus]”, for which, in assay [3], the “thymine dimer levels as compared to untreated control” value is on record as “clearly lower”. Moreover, the “decrease of amount of epidermal thymine dimers as compared to untreated mice” value in assay [1] is 89%. Besides, the UVB-induced apoptosis entry in assay [2] is “less pronounced”.
